Measurements from PMC11881437 (Molecular Medicine, 2025).
pIC50: −log10 of the molar value. Like-named read-outs stand apart in the source and are kept apart here.

Columns and labels:
OCT4, SOX2 and NANOG = assay: Real time PCR of stemness factors in sorted CD44+/CD133+ cells; assay type: cell-based, human; details: 24 h
Source text: CD44^+/CD133^+ cells were isolated using MACS LS column (Miltenyi Biotec, USA) after leveled with CD44 and CD133 antibody conjugated with microbeads (Miltenyi Biotec, USA) by following manufacture’s protocol and subjected to further analysis. Cells expressing both CD44 and CD133 were isolated using magnetic cell sorter (MACS) (Guerriero et al. [2017]).
Total RNA was extracted from sorted CD44^+/CD133^+ cell population using TRIZOL (Thermo Fisher Scientific, USA) as described in manufacturer’s protocol. cDNAs were synthesized from RNA templates by using cDNA isolation kit (Bio-Rad, USA) and target genes like OCT4, SOX2 and NANOG were amplified by using real time PCR kit (Bio-Rad, USA) following manufacturer’s instructions by Roche LightCycler® 96 System (Switzerland). Glyceraldehyde-3-phosphate dehydrogenase (GAPDH) gene expression was used to normalize the expression of the target genes.

[1] = Serum cytotoxicity markers (ALT, AST, ALP, BUN, creatinine); assay type: in vivo; details: BALB/c mice, 10 days, mean ± SD, n = 6
Experimental: (§1) To determine the toxicity of only Orientin treatment in various doses, the mice were divided into five groups. Each group contained six animals (n = 6). Each animal of the vehicle control group (VC) was left untreated, while, mice of other four groups were administered Orientin intravenously with 1 mg/kg b.w, 3 mg/kg b.w, 5 mg/kg b.w and 10 mg/kg b.w dosage respectively for 28 days. […] All the treatments were continued for 10 days. On day 11 all the mice were sacrificed and different parameters were studied.
Blood samples were collected from the retro-orbital venous plexus of mice for quantitative analysis of alanine aminotransferase (ALT), aspartate aminotransferase (AST), alkaline phosphatase (ALP), creatinine and blood urea nitrogen (BUN) in serum following kit protocol (Sigma Aldrich, USA). Optical densities were determined by using a spectrophotometer (Infinite® 200 PRO, TECAN, Switzerland).

[2] = Hepatic oxidative parameters and liver/kidney histopathology, 10 days treatment; assay type: in vivo, BALB/c mice; details: 5 mg/kg b.w i.v.; for kidney histopathology / liver histopathology: H&E
Experimental: as §1
Values of all the parameters were calculated with respect to the amount of total protein present in liver homogenates.
Various organs and solid tumors collected after sacrificing the mice were embedded into paraffin after 10% neutral buffered formalin fixation. 4 μm sections were prepared and used for histopathological study.

HCT116 cells [3] = assay: MTT cell viability assay; assay type: cell-based, human; details: for pIC50: Homo sapiens
Experimental: HCT116 cells (1 × 10^3 cells/well) were seeded in 96-well plates and cell viability was determined using MTT (Sigma-Aldrich, USA). […] MTT (0.5 mg/ml) was added to the cells after 48 h of treatment and incubated for 3 h in dark at 37 °C. The generated formazan complexes were dissolved in DMSO and the absorbance were measured at 550 nm using a spectrophotometer (Infinite® 200 PRO, TECAN, Switzerland) (Bhowmik et al. [2013]).

HCT116 cells [4] = assay: Atomic force microscopy of cell morphology; assay type: cell-based, human; details: HCT116, 24 h; 26 µM Orientin, 13 µM 5FU, 14 µM Orientin + 7 µM 5FU
Experimental: The material properties and dimensions of the probe used in contact mode were as follows: resonance frequency of 13 kHz (± 4 kHz), force constant of 0.2 N/m (± 0.14 N/m), cantilever length of 450 µm (± 10 µm), cantilever width of 38 µm (± 5 µm), cantilever thickness of 2 µm (± 1 µm), tip radius of 5 nm (± 1 nm), and tip height of 17 µm (± 2 µm). The scan area depends on the size of the cancer cell and ranged from 20 × 10–30 × 20 µm^2. Image processing and data analysis were performed using Picoview 1.10 software.

HUVEC = assay: Sprout (tube) formation assay with conditioned medium of CES; assay type: cell-based, human; details: for sprout formation: numbers and length of tubes: HUVEC, 24 h with CM of treated CES
Experimental: (§2) HCT116 CRC cells were grown in ultra-low attachment plate in 3dGRO™ Spheroid Medium (Sigma-Aldrich, USA) for 7 days. Spheroids enriched with CSCs were considered as CSC enriched spheres (CESs) or commonly referred as tumorospheres. After 7 days, tumorospheres were subjected to different treatments for 24 h, as per experimental protocol. Media of tumorospheres of all the treatment groups were collected, centrifuged to remove the cell debris and suspended spheres, supernatants were collected and vacuum concentrated. These supernatants were referred as conditioned medium (CM) and were stored at − 20 °C until use.
Matrigel was thawed overnight and the plate was coated with Matrigel (BD Bioscience, USA) and incubated for 1 h for polymerization. HUVECs (1 × 10^4) were seeded onto the Matrigel coated plate. After 8 h, media were changed with CM of interest. After 24 h of treatment tube formation was visualized microscopically and photographs were captured (DM 1000, Leica, Germany). The tube numbers were quantified by counting the branches between two discrete endothelial cells and length of the tubes were measured using Image J software by drawing a line along each tube and measuring the length in micrometer.

[5] = system: CD44+/CD133+ CSC population in CES derived from HCT116 cells; assay: Flow cytometry of CD44+/CD133+ cells in tumorospheres; assay type: cell-based, human; details: 24 h, 26 µM Orientin, 13 µM 5FU, 14 µM Orientin + 7 µM 5FU, untreated 18.4%
Experimental: as §2
Percentages of CD44^+/CD133^+ cell population were determined within tumorospheres and HIF1α positive cells were determined within the CD44^+/CD133^+ cell population using a flow cytometer (BD LSRFortessa™ X-20) and analyzed by BD FACSDiva™ software.

[6] = system: CSC enriched spheres (CES) derived from HCT116 cells; assay: Cellular ROS, NO and LPO level in CES; assay type: cell-based, human; details: 24 h, 26 µM Orientin, 13 µM 5FU, 14 µM Orientin + 7 µM 5FU
Experimental: Reactive oxygen species (ROS) level in the cells of treated and untreated CESs was measured by 2′,7′-dichlorofluorescein diacetate (DCFH-DA) standard protocol (Bhattacharjee et al. [2014]). The production of nitric oxide (NO) were estimated by the level of stable NO metabolites, viz., nitrate (NO3^–) and nitrite (NO2^–) ions by reaction with Griess reagent (Bryan and Grisham [2007]). […]

SMILES	mRNA level of stemness maintenance factors (OCT4, NANOG, SOX2) (OCT4, SOX2 and NANOG)	ALP [1] [U/ml]	ALT [1] [U/ml]	AST [1] [U/ml]	BUN [1] [mg/dL]	Creatinine [1] [mg/dL]	hepatic LPO, ROS and NO [2]	hepatic GSH and activity of GST, GPx, SOD and CAT ([2]; 5FU vs vehicle control, combination vs 5FU)	kidney histopathology [2]	liver histopathology [2]	reduction of IC50 in combination compared to individual treatment (HCT116 cells [3]; HCT116, MTT, 48 h)	pIC50 (HCT116 cells [3]; HCT-116, HCT116, MTT, 48 h, used separately, read-out: IC50)	cell morphology by AFM (HCT116 cells [4])	sprout formation: numbers and length of tubes (HUVEC)	CD44+/CD133+ cell population [5] [%]	ROS, NO and LPO production in tumorospheres [6]	pIC50 (HCT116 cells [3]; HCT-116, 48 h)	number of sprouting and length of tubes, comparison with VEGFA neutralizing antibody (HUVEC; HUVEC with CM of treated CES, 5 µg/ml VEGFA neutralizing antibody, 26 µM Orientin)
O=c1[nH]cc(F)c(=O)[nH]1 [5FU, 5-Fluorouracil, reference compound]	increased	168.44 ± 4.09	121.70 ± 3.95	219.16 ± 2.83	30.76 ± 0.46	0.73 ± 0.023	induce	reduced	distorted Bowman’s capsule, glomeruli, blood and cellular infiltration	distorted central vein, necrosis, cellular and blood infiltration	approximately 50%	4.89	cell shrinkage, distortion, nuclear condensation and fragmentation, membrane blebbing and morphological changes of cellular bodies	instigated sprout formations by increasing the numbers and length of tubes	22.3	increased		
O=c1cc(-c2ccc(O)c(O)c2)oc2c([C@@H]3O[C@H](CO)[C@@H](O)[C@H](O)[C@H]3O)c(O)cc(O)c12 [Orientin]	decreased	94.23 ± 2.10	49.08 ± 1.99	134.7 ± 2.00	21.48 ± 0.53	0.49 ± 0.020			did not induce any toxicity	remained normal	approximately 50%		cell shrinkage, distortion, nuclear condensation and fragmentation, membrane blebbing and morphological changes of cellular bodies	remarkably reduced	13.5	decrease	4.59	same level of inhibition
